From US10912749B2, “Conjugate acid salt of N,N-dimethylglycine with organic acid, and composition and use thereof” (GUANGZHOU INSIGHTER BIOTECHNOLOGY CO., LTD., priority 2017, dated 2021)
Counter-ions that a name gives are not always drawn. Marks after values point to notes of the source that are not given here.

Tests used:
[1] = High-humidity stability test; assay type: physicochemical; details: for hygroscopicity (in words): 25° C. and RH 95%, weight gains at day 5 turned the samples into water-like status; for hygroscopic weight gain Day 5 (%) / hygroscopic weight gain Day 10 (%): 25° C., RH 95%±1%, mean value±standard error, three parallels
Description: Method: A KNO3 saturated solution (25° C., […]) was placed in the lower part of a constant-temperature and constant-humidity sealed container. The test samples, three parallels for each test sample, were placed at 25° C. and RH 95%±1% for 10 days, and their average weight gains were measured at day 5 and day 10.

grass carps = test: Growth promotion experiment in aquatic feed; assay type: in vivo; details: 450 ppm in feed, 8 weeks; for SR (%): survival rate
Description: Test fish: The experiment fish were grass carps, born at the year of the test, from Dafeng hatchery in Huizhou City, Guangdong Province. Healthy and lively grass carps of the same size were reared in big net cages (4×2×1.5 m^3) for four weeks before the breeding experiment. The experiment system included floating small net cages (1.1×1.1×1.1 m^3), each small net cage was provided with an aerator and aerated 24 hours every day. […] 384 fish which were similar in body weight and had been starved for 1 day were randomly divided into 8 groups, 4 replicates in each group and 12 fish in each replicate. The fish of each replicate were weighed and transferred to […] net cages, and fed with different test feeds respectively.
Experiment feeds: The experiment feeds were prepared according to Table 6. The groups were respectively provided with different conjugate acid salts of N,N-dimethylglycine with metal and organic acid in the same concentration according to Table 7. Raw materials of the feed were ultra-pulverized, and then turned into floating expanded feed having a particle size of 3 mm by using a feed extruder from Jiangsu Muyang Group Co., Ltd. wherein the extruding temperature was 130° C., and 3% of soybean oil was sprayed on the feed using an oil sprayer. The feed was then sealed and stored in a cool place for later use.
Test management: The experiment was carried out with diet restriction, the diet amount was adjusted once a week, the feeding level (based on initial weight) of each group was exactly the same, and feeding was conducted twice every day (at 7:30 and 15:00). The experiment was carried out for 8 weeks. During the experiment, water quality was monitored regularly to maintain the following conditions: water temperature 26.88±3.08° C., DO>5.0 mg O L^−1, pH 7.8, ammonia nitrogen <0.50 mg N L^−1, and nitrite nitrogen <0.05 mg N L^1.
Parameter statistics: In the experiment, the fish in each net cage were weighed as a whole after starved for 1 day so as to calculate their weight gain (WG, %), feed conversion ratio (FCR) and survival rate (SR, %), through the following formula. Weight gain (WG, %)=100×(average final weight−average initial weight)/average initial weight Feed conversion ratio (FCR)=feed intake/fish weight gain Survival rate (SR, %)=100×fish amount at the end of the test/fish amount at the beginning of the test

Sanhuang broilers = test: Breeding experiment in broiler feed (production performance); assay type: in vivo
Description: The experiment was carried out by single-factor randomized design. 1080 22-day-old Sanhuang broilers having similar body weight (averagely 153 g) were collected and randomly divided into 9 groups, 6 replicates in each group, 20 broilers in each replicate, with equal numbers of males and females. The henhouse and utensils were disinfected before the experiment. The broilers were kept in cages in the same henhouse under the same breeding conditions during the experiment. The basic diets mainly composed of corn and soybean meal, and no other antioxidant ingredients and growth promoters were added during the whole breeding process. The groups included a blank group, a control group, and experiment groups 1-7. […] For each replicate, the broilers were weighed (stopped feeding for 12 hours while water supply was maintained) at 42-day-old and their feed consumptions were recorded so as to calculate the average daily feed intake (ADFI), average daily weight gain (ADG) and feed conversion ratio (FCR). The experiment data were analyzed with SPSS18 software. The data were first analyzed by single factor analysis of variance (ANOVA), and if the differences between the groups were significant, multiple comparisons were performed using Duncan's method wherein the significance level was 0.05.

| Compound | hygroscopicity (in words) [1] | hygroscopic weight gain Day 5 (%) [1] [%] | hygroscopic weight gain Day 10 (%) [1] [%] | (FCR) (grass carps) | Final weight (grass carps) [g] | Weight gain (%) (grass carps) | SR (%) (grass carps) | breeding effect with respect to feed conversion efficiency compared with sodium N,N-dimethylglycinate (Sanhuang broilers) |
| --- | --- | --- | --- | --- | --- | --- | --- | --- |
| CN(C)CC(=O)O.Cl [Sample 1, N,N-dimethylglycine hydrochloride] | very high hygroscopicity | 79.86 ± 0.94 | 80.69 ± 0.59 | – | – | – | – | – |
| CN(C)CC(=O)[O-].[Na+] [Sample 2, Sodium N,N-dimethylglycinate] | very high hygroscopicity | 49.09 ± 1.14 | 52.44 ± 0.48 | – | – | – | – | – |
| CN(C)CC(=O)[O-].CN(C)CC(=O)[O-].O=C(O)c1ccccc1.O=C(O)c1ccccc1.[Ca+2] [Sample 5, Conjugate acid salt of calcium N,N-dimethylglycinate with benzoic acid] | – | – | 3.69 ± 0.28 | 1.48 ± 0.03 | 586.87 ± 10.44 | 134.96 ± 2.82 | 83.10 ± 3.65^b % | equivalent to that of sodium N,N-dimethylglycinate |
| CN(C)CC(=O)[O-].CN(C)CC(=O)[O-].O=C(O)/C=C/C(=O)O.[Ca+2] [Sample 6, Conjugate acid salt of calcium N,N-dimethylglycinate with fumaric acid] | – | – | – | 1.48 ± 0.03 | 589.33 ± 12.75 | 138.98 ± 3.02 | 83.90 ± 5.30^b % | – |
| CCCCCCCCCCCCCC(=O)O.CCCCCCCCCCCCCC(=O)O.CN(C)CC(=O)[O-].CN(C)CC(=O)[O-].[Ca+2] [Sample 7, Conjugate acid salt of calcium N,N-dimethylglycinate with tetradecanoic acid] | – | – | 3.06 ± 0.29 | 1.46 ± 0.04 | 585.22 ± 11.23 | 134.40 ± 2.90 | 73.00 ± 3.63^b % | – |
| CN(C)CC(=O)[O-].CN(C)CC(=O)[O-].O=C(O)c1ccccc1.O=C(O)c1ccccc1.[Cu+2] [Sample 8, Conjugate acid salt of copper N,N-dimethylglycinate with benzoic acid] | – | – | – | 1.41 ± 0.03 | 598.68 ± 9.66 | 143.40 ± 10.09 | 80.04 ± 3.80^b % | – |
| CN(C)CC(=O)[O-].CN(C)CC(=O)[O-].O=C(O)/C=C/C(=O)O.[Cu+2] [Sample 9, Conjugate acid salt of copper N,N-dimethylglycinate with fumaric acid] | – | – | – | 1.43 ± 0.03 | 598.12 ± 9.27 | 139.12 ± 2.34 | 83.96 ± 5.68^b % | – |
| CN(C)CC(=O)[O-].CN(C)CC(=O)[O-].O=C(O)c1ccccc1.O=C(O)c1ccccc1.[Zn+2] [Sample 10, Conjugate acid salt of zinc N,N-dimethylglycinate with benzoic acid] | – | – | – | 1.45 ± 0.03 | 597.66 ± 9.69 | 133.08 ± 4.70 | 78.04 ± 4.21^b % | – |
| CN(C)CC(=O)[O-].CN(C)CC(=O)[O-].O=C(O)/C=C/C(=O)O.[Zn+2] [Sample 11, Conjugate acid salt of zinc N,N-dimethylglycinate with fumaric acid] | – | – | – | 1.44 ± 0.02 | 600.00 ± 9.30 | 139.98 ± 3.58 | 84.94 ± 4.26^b % | – |
| CN(C)CC(=O)[O][Zn][O]C(=O)CN(C)C [Sample 11, Conjugate acid salt of zinc N,N-dimethylglycinate with fumaric acid] | – | – | 2.88 ± 0.22 | – | – | – | – | – |
| Calcium N,N-dimethylglycinate [Sample 3] | very high hygroscopicity | 38.40 ± 0.22 | 41.83 ± 0.35 | – | – | – | – | – |
